Results reported in ChEMBL document CHEMBL1614632, “Trend analysis of a database of intravenous pharmacokinetic parameters in humans for 670 drug compounds” (Drug Metab Dispos, 2008).

Columns and labels:
clinical [1] = details: human, in vivo, iv, CL
clinical [2] = details: human, in vivo, iv, Vdss
clinical [3] = details: human, in vivo, iv
clinical [4] = details: human, in vivo, iv, t1/2

Q: Which clearance (clinical [1]) does the source give for CCC1(c2ccccc2)C(=O)NC(=O)NC1=O [PHENOBARBITAL] here?
A: 0.063 mL/min/kg

Q: And the Vd (clinical [2])?
A: 0.54 L/kg

Q: And the MRT (clinical [3])?
A: 140 h

Q: And the half-life (clinical [4])?
A: 99 h

Q: Which clearance (clinical [1]) does the source give for CC1CCCC(C)N1CCCC(O)(c1ccccc1)c1ccccn1 (stereo not given) [PIRMENOL] here?
A: 1.8 mL/min/kg

Q: What about the Vd (clinical [2]) of the same molecule?
A: 1.4 L/kg

Q: What about the MRT (clinical [3]) of the same molecule?
A: 13 h

Q: And the half-life (clinical [4])?
A: 8.4 h

Q: For CCCN(CCC)S(=O)(=O)c1ccc(C(=O)O)cc1 [PROBENECID], which clearance (clinical [1]) is on record?
A: 0.25 mL/min/kg

Q: And the Vd (clinical [2])?
A: 0.13 L/kg

Q: And the MRT (clinical [3])?
A: 8.7 h

Q: What about the half-life (clinical [4]) of the same molecule?
A: 5.9 h

Q: Which results are given for CN1CCN(CCCN2c3ccccc3Sc3ccc(Cl)cc32)CC1 [PROCHLORPERAZINE]?
A: clearance (clinical [1]): 16 mL/min/kg; Vd (clinical [2]): 22 L/kg; MRT (clinical [3]): 23 h; half-life (clinical [4]): 9 h

Q: Which clearance (clinical [1]) does the source give for OC(CCN1CCCC1)(c1ccccc1)C1CCCCC1 (stereo not given) [PROCYCLIDINE] here?
A: 0.86 mL/min/kg

Q: And the Vd (clinical [2])?
A: 0.74 L/kg

Q: And the MRT (clinical [3])?
A: 14 h

Q: And the half-life (clinical [4])?
A: 12 h

Q: Which results are given for CC(C)NCC(O)COc1cccc2ccccc12 (stereo not given) [PROPRANOLOL]?
A: clearance (clinical [1]): 12 mL/min/kg; Vd (clinical [2]): 3.1 L/kg; MRT (clinical [3]): 4.3 h; half-life (clinical [4]): 3.4 h

Q: Which results are given for Cc1cc(O)c2c(=O)c3c(O)cc(O)c4c5c(O)cc(O)c6c(=O)c7c(O)cc(CO)c8c1c2c(c34)c(c65)c78 [PSEUDOHYPERICIN]?
A: clearance (clinical [1]): 0.62 mL/min/kg; Vd (clinical [2]): 0.56 L/kg; MRT (clinical [3]): 15 h; half-life (clinical [4]): 20 h

Q: What does the source list for CN(C)C(=O)Oc1ccc[n+](C)c1 [PYRIDOSTIGMINE]?
A: clearance (clinical [1]): 9.6 mL/min/kg; Vd (clinical [2]): 1.1 L/kg; MRT (clinical [3]): 1.8 h; half-life (clinical [4]): 1.5 h

Q: With CCN(CC)CCCC(C)Nc1c2ccc(Cl)cc2nc2ccc(OC)cc12 (stereo not given) [QUINACRINE] as the molecule, how does the clearance (clinical [1]) read?
A: 5.1 mL/min/kg

Q: And the Vd (clinical [2])?
A: 45 L/kg

Q: And the MRT (clinical [3])?
A: 150 h

Q: What about the half-life (clinical [4]) of the same molecule?
A: 120 h

Q: For COCCCOc1ccnc(C[S+]([O-])c2nc3ccccc3[nH]2)c1C (stereo not given) [RABEPRAZOLE], which clearance (clinical [1]) is on record?
A: 4 mL/min/kg

Q: And the Vd (clinical [2])?
A: 0.22 L/kg

Q: And the MRT (clinical [3])?
A: 0.92 h

Q: What about the half-life (clinical [4]) of the same molecule?
A: 1 h

Q: What does the source list for CCOc1ccccc1OC(c1ccccc1)C1CNCCO1 (stereo not given) [REBOXETINE]?
A: clearance (clinical [1]): 0.82 mL/min/kg; Vd (clinical [2]): 0.65 L/kg; MRT (clinical [3]): 13 h; half-life (clinical [4]): 10 h

Q: With CCOc1cc(CC(=O)N[C@@H](CC(C)C)c2ccccc2N2CCCCC2)ccc1C(=O)O [REPAGLINIDE] as the molecule, how does the clearance (clinical [1]) read?
A: 7.8 mL/min/kg

Q: And the Vd (clinical [2])?
A: 0.35 L/kg

Q: What about the MRT (clinical [3]) of the same molecule?
A: 0.75 h

Q: And the half-life (clinical [4])?
A: 0.87 h

Q: With O=C1c2ccccc2S(=O)(=O)N1CCCCNC[C@H]1CCc2ccccc2O1 [REPINOTAN] as the molecule, how does the clearance (clinical [1]) read?
A: 2.2 mL/min/kg

Q: And the Vd (clinical [2])?
A: 0.21 L/kg

Q: What about the MRT (clinical [3]) of the same molecule?
A: 1.6 h

Q: What about the half-life (clinical [4]) of the same molecule?
A: 1.2 h

Q: For NC[C@H]1O[C@H](O[C@H]2[C@H](O[C@@H]3O[C@H](CO)[C@@H](O)[C@H]3O)[C@@H](O)[C@H](N)C[C@@H]2N)[C@H](N)[C@@H](O)[C@@H]1O [RIBOSTAMYCIN], which clearance (clinical [1]) is on record?
A: 1.5 mL/min/kg

Q: What about the Vd (clinical [2]) of the same molecule?
A: 0.25 L/kg

Q: And the MRT (clinical [3])?
A: 2.8 h

Q: What about the half-life (clinical [4]) of the same molecule?
A: 2.5 h

Q: With CO[C@H]1/C=C/O[C@@]2(C)Oc3c(C)c(O)c4c(c3C2=O)C2=NC3(CCN(CC(C)C)CC3)NC2=C(NC(=O)/C(C)=C\C=C\[C@H](C)[C@H](O)[C@@H](C)[C@@H](O)[C@@H](C)[C@H](OC(C)=O)[C@@H]1C)C4=O [RIFABUTIN] as the molecule, how does the clearance (clinical [1]) read?
A: 2.4 mL/min/kg

Q: What about the Vd (clinical [2]) of the same molecule?
A: 9.3 L/kg

Q: What about the MRT (clinical [3]) of the same molecule?
A: 65 h

Q: What about the half-life (clinical [4]) of the same molecule?
A: 37 h

Q: Which clearance (clinical [1]) does the source give for CN(C)CCc1c[nH]c2ccc(Cn3cncn3)cc12 [RIZATRIPTAN] here?
A: 16 mL/min/kg

Q: What about the Vd (clinical [2]) of the same molecule?
A: 1.9 L/kg

Q: What about the MRT (clinical [3]) of the same molecule?
A: 1.98 h

Q: What about the half-life (clinical [4]) of the same molecule?
A: 2.2 h

Q: What does the source list for CN(C(=O)c1c(O)c2ccccc2n(C)c1=O)c1ccccc1 [ROQUINIMEX]?
A: clearance (clinical [1]): 0.082 mL/min/kg; Vd (clinical [2]): 0.21 L/kg; MRT (clinical [3]): 43 h; half-life (clinical [4]): 31 h

Q: Which results are given for CC(C)c1nc(N(C)S(C)(=O)=O)nc(-c2ccc(F)cc2)c1/C=C/[C@@H](O)C[C@@H](O)CC(=O)O [ROSUVASTATIN]?
A: clearance (clinical [1]): 11 mL/min/kg; Vd (clinical [2]): 1.7 L/kg; MRT (clinical [3]): 2.6 h; half-life (clinical [4]): 2 h

Q: Which results are given for CN(CC(N)=O)C(=O)N(CCCl)N=O [SARCNU]?
A: clearance (clinical [1]): 9 mL/min/kg; Vd (clinical [2]): 0.76 L/kg; MRT (clinical [3]): 1.4 h; half-life (clinical [4]): 1 h

Q: For C#CCN(C)[C@H](C)Cc1ccccc1 [SELEGILINE], which clearance (clinical [1]) is on record?
A: 20 mL/min/kg

Q: What about the Vd (clinical [2]) of the same molecule?
A: 1.9 L/kg

Q: What about the MRT (clinical [3]) of the same molecule?
A: 1.6 h

Q: What about the half-life (clinical [4]) of the same molecule?
A: 1.3 h

Q: For CCN(CC)CCNC(=O)c1ccc(NS(C)(=O)=O)cc1 [SEMATILIDE], which clearance (clinical [1]) is on record?
A: 3.7 mL/min/kg

Q: And the Vd (clinical [2])?
A: 0.82 L/kg

Q: What about the MRT (clinical [3]) of the same molecule?
A: 3.7 h

Q: What about the half-life (clinical [4]) of the same molecule?
A: 3.8 h

Q: With N[C@@H]1CN(c2c(F)cc3c(=O)c(C(=O)O)cn([C@@H]4C[C@@H]4F)c3c2Cl)CC12CC2 [SITAFLOXACIN ANHYDROUS] as the molecule, how does the clearance (clinical [1]) read?
A: 3.7 mL/min/kg

Q: And the Vd (clinical [2])?
A: 1.5 L/kg

Q: And the MRT (clinical [3])?
A: 6.7 h

Q: What about the half-life (clinical [4]) of the same molecule?
A: 6.6 h

Q: What does the source list for N[C@@H](CC(=O)N1CCn2c(nnc2C(F)(F)F)C1)Cc1cc(F)c(F)cc1F [SITAGLIPTIN]?
A: clearance (clinical [1]): 6 mL/min/kg; Vd (clinical [2]): 2.8 L/kg; MRT (clinical [3]): 7.78 h; half-life (clinical [4]): 12 h

Q: Which clearance (clinical [1]) does the source give for C[C@@H]1CN(c2c(F)c(N)c3c(=O)c(C(=O)O)cn(C4CC4)c3c2F)C[C@H](C)N1 [SPARFLOXACIN] here?
A: 2.7 mL/min/kg

Q: And the Vd (clinical [2])?
A: 3.9 L/kg

Q: What about the MRT (clinical [3]) of the same molecule?
A: 24 h

Q: And the half-life (clinical [4])?
A: 20 h

Q: What does the source list for CN[C@@H]1[C@H](O)[C@H](NC)[C@H]2O[C@@]3(O)C(=O)C[C@@H](C)O[C@H]3O[C@@H]2[C@H]1O [SPECTINOMYCIN]?
A: clearance (clinical [1]): 0.99 mL/min/kg; Vd (clinical [2]): 0.13 L/kg; MRT (clinical [3]): 2.2 h; half-life (clinical [4]): 1.8 h

Q: With CC(C)[C@@H](CC[C@@H](C)[C@H]1CC[C@H]2[C@@H]3[C@H](O)C[C@H]4C[C@@H](NCCCNCCCCN)CC[C@]4(C)[C@H]3CC[C@]12C)OS(=O)(=O)O [SQUALAMINE] as the molecule, how does the clearance (clinical [1]) read?
A: 1.2 mL/min/kg

Q: What about the Vd (clinical [2]) of the same molecule?
A: 0.23 L/kg

Q: And the MRT (clinical [3])?
A: 3.2 h

Q: What about the half-life (clinical [4]) of the same molecule?
A: 9.5 h

Q: For Nc1ccc(S(=O)(=O)Nc2ncccn2)cc1 [SULFADIAZINE], which clearance (clinical [1]) is on record?
A: 0.55 mL/min/kg

Q: What about the Vd (clinical [2]) of the same molecule?
A: 0.29 L/kg

Q: What about the MRT (clinical [3]) of the same molecule?
A: 8.8 h

Q: And the half-life (clinical [4])?
A: 7 h

Q: Which results are given for CC(C(=O)O)c1ccc(C(=O)c2cccs2)cc1 (stereo not given) [SUPROFEN]?
A: clearance (clinical [1]): 0.76 mL/min/kg; Vd (clinical [2]): 0.04 L/kg; MRT (clinical [3]): 0.88 h; half-life (clinical [4]): 2.1 h

Q: With C=CC[C@@H]1/C=C(\C)C[C@H](C)C[C@H](OC)[C@H]2O[C@@](O)(C(=O)C(=O)N3CCCC[C@H]3C(=O)O[C@H](/C(C)=C/[C@@H]3CC[C@@H](O)[C@H](OC)C3)[C@H](C)[C@@H](O)CC1=O)[C@H](C)C[C@@H]2OC [TACROLIMUS ANHYDROUS] as the molecule, how does the clearance (clinical [1]) read?
A: 0.7 mL/min/kg

Q: And the Vd (clinical [2])?
A: 1.2 L/kg

Q: And the MRT (clinical [3])?
A: 27 h

Q: What about the half-life (clinical [4]) of the same molecule?
A: 26 h

Q: Which clearance (clinical [1]) does the source give for CC(C)(C)NCC(O)COc1ccc(NC(=O)NC2CCCCC2)cc1 (stereo not given) [TALINOLOL] here?
A: 4.9 mL/min/kg

Q: And the Vd (clinical [2])?
A: 3.3 L/kg

Q: What about the MRT (clinical [3]) of the same molecule?
A: 11 h

Q: And the half-life (clinical [4])?
A: 11 h

Q: What does the source list for CCOc1ccccc1OCCN[C@H](C)Cc1ccc(OC)c(S(N)(=O)=O)c1 [TAMSULOSIN]?
A: clearance (clinical [1]): 0.62 mL/min/kg; Vd (clinical [2]): 0.21 L/kg; MRT (clinical [3]): 5.6 h; half-life (clinical [4]): 6.8 h

Q: For CCCCCNC(=N)N/N=C/c1c[nH]c2ccc(OC)cc12 [TEGASEROD], which clearance (clinical [1]) is on record?
A: 18 mL/min/kg

Q: And the Vd (clinical [2])?
A: 5.3 L/kg

Q: And the MRT (clinical [3])?
A: 4.9 h

Q: What about the half-life (clinical [4]) of the same molecule?
A: 11 h

Q: What does the source list for CO[C@H]1C[C@@H]2CC[C@@H](C)[C@@](O)(O2)C(=O)C(=O)N2CCCC[C@H]2C(=O)O[C@H]([C@H](C)C[C@@H]2CC[C@@H](OC(=O)C(C)(CO)CO)[C@H](OC)C2)CC(=O)[C@H](C)/C=C(\C)[C@@H](O)[C@@H](OC)C(=O)[C@H](C)C[C@H](C)/C=C/C=C/C=C/1C [TEMSIROLIMUS]?
A: clearance (clinical [1]): 7.7 mL/min/kg; Vd (clinical [2]): 3 L/kg; MRT (clinical [3]): 10 h; half-life (clinical [4]): 18 h

Q: For CC(C)(C)NCC(O)c1cc(O)cc(O)c1 (stereo not given) [TERBUTALINE], which clearance (clinical [1]) is on record?
A: 3.4 mL/min/kg

Q: What about the Vd (clinical [2]) of the same molecule?
A: 1.5 L/kg

Q: What about the MRT (clinical [3]) of the same molecule?
A: 7.4 h

Q: And the half-life (clinical [4])?
A: 15 h

Q: What does the source list for CC(CC(c1ccccc1)c1ccccc1)NC(C)(C)C (stereo not given) [TERODILINE]?
A: clearance (clinical [1]): 1.1 mL/min/kg; Vd (clinical [2]): 5.1 L/kg; MRT (clinical [3]): 81 h; half-life (clinical [4]): 56 h
